The supplement of paper PMC11208160

Assay: recombinant barcode read abundance after kanamycin selection (control-corrected) (log10(CPM+1)); higher = more efficient recombination; sequences stand for … in AGTGCAGAGAAAATCGGCCAGTTTTCTCTGCCTGCAGTCCGCATGCCGT…AGATTTATGCAGCGGACTGCCTTTCTCCCAAAGTGATAAACCGGACAGTATCATGGACCGGTTTTCCCGGTAATCCGTATTTGCAAGGTTGGTTTCACT; site = the 11-nt target
Summary of the method: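 Values are log10(CPM+1) from a pooled E. coli screen of targets paired with IS621 bridge RNA target-binding loops. Recombination efficiency here means counts per million of recombinant-junction barcodes, averaged and control-corrected. Plates were chloramphenicol/ampicillin LB agar for the control and chloramphenicol/ampicillin/kanamycin with 0.1 mM IPTG, two replicates each.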
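Also: IS621 recombinase and bridge RNA in Escherichia coli cells.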

## GGGGCCTCTTGGGTTCTAACCTGTTGCTT (site GGGGCCTCTAA)
  recombinant barcode read abundance (log10): 2.59

## GGGGCCTCTTGGGTTCTAACCTGTTGCTT (site GGGGCGTCTAA)
  recombinant barcode read abundance (log10): 0.225

## GGGGCCTCTTGGGTTCTAACCTGTTGCTT (site GGGGCTTCTAA)
  recombinant barcode read abundance (log10): 0.398

## GGGGCGGCTTGGGTTCTAACCTGTTGCCT (site GGGGCGACTAG)
  recombinant barcode read abundance (log10): 0.489

## GGGGCGGCTTGGGTTCTAACCTGTTGCCT (site GGGGCGCCTAG)
  recombinant barcode read abundance (log10): 0.0428

## GGGGCGGCTTGGGTTCTAACCTGTTGCCT (site GGGGCGGCTAG)
  recombinant barcode read abundance (log10): 1.8

## GGGGCGGCTTGGGTTCTAACCTGTTGCCT (site GGGGCGTCTAG)
  recombinant barcode read abundance (log10): 0.242

## GGGGCGTCTTGGGTTCTAACCTGTTGCCG (site GGGCAGTCTCG)
  recombinant barcode read abundance (log10): 0.201

## GGGGCGTCTTGGGTTCTAACCTGTTGCCG (site GGGGCGTCTCG)
  recombinant barcode read abundance (log10): 1.63

## GGGGCGTCTTGGGTTCTAACCTGTTGCCT (site GGGGCGACTAG)
  recombinant barcode read abundance (log10): 0.167

## GGGGCGTCTTGGGTTCTAACCTGTTGCCT (site GGGGCGCCTAG)
  recombinant barcode read abundance (log10): 0.426

## GGGGCGTCTTGGGTTCTAACCTGTTGCCT (site GGGGCGGCTAG)
  recombinant barcode read abundance (log10): 0.172

## GGGGCGTCTTGGGTTCTAACCTGTTGCCT (site GGGGCGTCTAG)
  recombinant barcode read abundance (log10): 1.55

## GGGGCGTCTTGGGTTCTAACCTGTTGCTG (site GGGGCGTCTCA)
  recombinant barcode read abundance (log10): 2.44

## GGGGCGTCTTGGGTTCTAACCTGTTGCTG (site TCCATAACTAG)
  recombinant barcode read abundance (log10): 0.175

## GGGGCTTCTTGGGTTCTAACCTGTTGCCT (site GAGGCTTCTAG)
  recombinant barcode read abundance (log10): 0.0126

## GGGGCTTCTTGGGTTCTAACCTGTTGCCT (site GCGGCTTCTAG)
  recombinant barcode read abundance (log10): 0.207

## GGGGCTTCTTGGGTTCTAACCTGTTGCCT (site GGGGCTTCTAG)
  recombinant barcode read abundance (log10): 0.919

## GGGGCTTCTTGGGTTCTAACCTGTTGCCT (site GTGGCTTCTAG)
  recombinant barcode read abundance (log10): 0.245

## GGGGTATCTTGGGTTCTAACCTGTTGCCT (site GCGGTATCTAG)
  recombinant barcode read abundance (log10): 0.0929

## GGGGTATCTTGGGTTCTAACCTGTTGCCT (site GGGGTATCTAG)
  recombinant barcode read abundance (log10): 1.21

## GGGTAAACTTGGGTTCTAACCTGTTGCCT (site GGGTAAACTAG)
  recombinant barcode read abundance (log10): 0.953

## GGGTAAACTTGGGTTCTAACCTGTTGCCT (site GGGTAATCTAG)
  recombinant barcode read abundance (log10): 0.702

## GGGTAACCTTGGGTTCTAACCTGTTGCCT (site AGGTAACCTAG)
  recombinant barcode read abundance (log10): 0

## GGGTAACCTTGGGTTCTAACCTGTTGCCT (site CGGTAACCTAG)
  recombinant barcode read abundance (log10): 0.064

## GGGTAACCTTGGGTTCTAACCTGTTGCCT (site GGGTAACCTAG)
  recombinant barcode read abundance (log10): 0.406

## GGGTAACCTTGGGTTCTAACCTGTTGCCT (site TGGTAACCTAG)
  recombinant barcode read abundance (log10): 0.19

## GGGTCCACTTGGGTTCTAACCTGTTGCCA (site GGGTCCACTCC)
  recombinant barcode read abundance (log10): 0.127

## GGGTCCACTTGGGTTCTAACCTGTTGCCA (site GGGTCCACTTG)
  recombinant barcode read abundance (log10): 1.44

## GGGTCCTCTTGGGTTCTAACCTGTTGCCA (site GGGTCCTCTAG)
  recombinant barcode read abundance (log10): 1.69

## GGGTCCTCTTGGGTTCTAACCTGTTGCCA (site GGGTCCTCTCG)
  recombinant barcode read abundance (log10): 0.29

## GGGTCCTCTTGGGTTCTAACCTGTTGCCA (site GGGTCCTCTGG)
  recombinant barcode read abundance (log10): 0.0677

## GGGTCCTCTTGGGTTCTAACCTGTTGCCA (site GGGTCCTCTTG)
  recombinant barcode read abundance (log10): 1.29

## GGGTCCTCTTGGGTTCTAACCTGTTGCCT (site GGGTCCTCTAG)
  recombinant barcode read abundance (log10): 2.24

## GGGTCCTCTTGGGTTCTAACCTGTTGCCT (site GGGTCCTCTCG)
  recombinant barcode read abundance (log10): 0.776

## GGGTCCTCTTGGGTTCTAACCTGTTGCCT (site GGGTCCTCTGG)
  recombinant barcode read abundance (log10): 0.578

## GGGTCCTCTTGGGTTCTAACCTGTTGCCT (site GGGTCCTCTTG)
  recombinant barcode read abundance (log10): 0.155

## GGGTCGGCTTGGGTTCTAACCTGTTGCGA (site GGGTCGGCTAC)
  recombinant barcode read abundance (log10): 0.231

## GGGTCGGCTTGGGTTCTAACCTGTTGCGA (site GGGTCGGCTCC)
  recombinant barcode read abundance (log10): 0.552

## GGGTCGGCTTGGGTTCTAACCTGTTGCGA (site GGGTCGGCTGC)
  recombinant barcode read abundance (log10): 0.179

## GGGTCGGCTTGGGTTCTAACCTGTTGCGA (site GGGTCGGCTTC)
  recombinant barcode read abundance (log10): 2.27

## GGTAAAGCTTGGGTTCTAACCTGTTGCCT (site GGTAAAGCTAG)
  recombinant barcode read abundance (log10): 0.71

## GGTAAAGCTTGGGTTCTAACCTGTTGCCT (site GGTATAGCTAG)
  recombinant barcode read abundance (log10): 0.216

## GGTAATACTTGGGTTCTAACCTGTTGCAT (site AACGTACCTTG)
  recombinant barcode read abundance (log10): 0.191

## GGTAATACTTGGGTTCTAACCTGTTGCAT (site GGTAATACTAT)
  recombinant barcode read abundance (log10): 0.957

## GGTACGCCTTGGGTTCTAACCTGTTGCAT (site GGTACGACTCT)
  recombinant barcode read abundance (log10): 0.17

## GGTACGCCTTGGGTTCTAACCTGTTGCAT (site GGTACGCCTAT)
  recombinant barcode read abundance (log10): 0.685

## GGTAGGACTTGGGTTCTAACCTGTTGCCT (site AGTAGGACTAG)
  recombinant barcode read abundance (log10): 0.239

## GGTAGGACTTGGGTTCTAACCTGTTGCCT (site CGTAGGACTAG)
  recombinant barcode read abundance (log10): 0.0936

## GGTAGGACTTGGGTTCTAACCTGTTGCCT (site GGTAGGACTAG)
  recombinant barcode read abundance (log10): 0.278

## GGTAGGACTTGGGTTCTAACCTGTTGCCT (site TGTAGGACTAG)
  recombinant barcode read abundance (log10): 0.0335

## GGTATGACTTGGGTTCTAACCTGTTGCCT (site AGTATGACTAG)
  recombinant barcode read abundance (log10): 0.595

## GGTATGACTTGGGTTCTAACCTGTTGCCT (site CGTATGACTAG)
  recombinant barcode read abundance (log10): 0.197

## GGTATGACTTGGGTTCTAACCTGTTGCCT (site GGTATGACTAG)
  recombinant barcode read abundance (log10): 0.956

## GGTATGACTTGGGTTCTAACCTGTTGCCT (site TGTATGACTAG)
  recombinant barcode read abundance (log10): 0.0723

## GGTATGTCTTGGGTTCTAACCTGTTGCCT (site AGTATGTCTAG)
  recombinant barcode read abundance (log10): 0.204

## GGTATGTCTTGGGTTCTAACCTGTTGCCT (site CGTATGTCTAG)
  recombinant barcode read abundance (log10): 0.0446

## GGTATGTCTTGGGTTCTAACCTGTTGCCT (site GGTATGTCTAG)
  recombinant barcode read abundance (log10): 1.96

## GGTATGTCTTGGGTTCTAACCTGTTGCCT (site TGTATGTCTAG)
  recombinant barcode read abundance (log10): 0.106

## GGTCATTCTTGGGTTCTAACCTGTTGCCT (site GGTCATACTAG)
  recombinant barcode read abundance (log10): 0.0311

## GGTCATTCTTGGGTTCTAACCTGTTGCCT (site GGTCATCCTAG)
  recombinant barcode read abundance (log10): 0.157

## GGTCATTCTTGGGTTCTAACCTGTTGCCT (site GGTCATGCTAG)
  recombinant barcode read abundance (log10): 0.0124

## GGTCATTCTTGGGTTCTAACCTGTTGCCT (site GGTCATTCTAG)
  recombinant barcode read abundance (log10): 0.626

## GGTCGGACTTGGGTTCTAACCTGTTGCCA (site GGACGGACTTG)
  recombinant barcode read abundance (log10): 0.281

## GGTCGGACTTGGGTTCTAACCTGTTGCCA (site GGTCGGACTTG)
  recombinant barcode read abundance (log10): 0.548

## GGTCGGACTTGGGTTCTAACCTGTTGCGT (site GGAGGGACTAC)
  recombinant barcode read abundance (log10): 0.0819

## GGTCGGACTTGGGTTCTAACCTGTTGCGT (site GGTCGGACTAC)
  recombinant barcode read abundance (log10): 2.17

## GGTCGTACTTGGGTTCTAACCTGTTGCCT (site CCGTTGTCTTA)
  recombinant barcode read abundance (log10): 0.177

## GGTCGTACTTGGGTTCTAACCTGTTGCCT (site GGTCGTACTAG)
  recombinant barcode read abundance (log10): 0.286

## GGTGAGCCTTGGGTTCTAACCTGTTGCGT (site CACACTACTCA)
  recombinant barcode read abundance (log10): 0.0427

## GGTGAGCCTTGGGTTCTAACCTGTTGCGT (site GGTGAGCCTAC)
  recombinant barcode read abundance (log10): 2.68

## GGTGCCTCTTGGGTTCTAACCTGTTGCAT (site GGGGCCTCTCT)
  recombinant barcode read abundance (log10): 0.258

## GGTGCCTCTTGGGTTCTAACCTGTTGCAT (site GGTGCCTCTAT)
  recombinant barcode read abundance (log10): 1.46

## GGTGCGGCTTGGGTTCTAACCTGTTGCCT (site AGTGCGGCTAG)
  recombinant barcode read abundance (log10): 0.492

## GGTGCGGCTTGGGTTCTAACCTGTTGCCT (site CGTGCGGCTAG)
  recombinant barcode read abundance (log10): 0.139

## GGTGCGGCTTGGGTTCTAACCTGTTGCCT (site GGTGCGGCTAG)
  recombinant barcode read abundance (log10): 0.494

## GGTGCGGCTTGGGTTCTAACCTGTTGCCT (site TGTGCGGCTAG)
  recombinant barcode read abundance (log10): 0.505
